Assay results: PubChem BioAssay AID540258 (Broad Institute, 2011)
The source made the active and inactive calls.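 How the source made its calls: active means fitted curve reaching 40% activation at or below the top valid dose tested; inconclusive means flat curve at 30 to 70% activation, or poor fit; inactive means the rest.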

Test system: SK-MEL-5 TRPM1 promoter luciferase reporter, 24 h
Assay: MITF activators via TRPM1 promoter reporter, dose response, SK-MEL-5 cells, luciferase, cherry-pick samples (AID 540258);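 further: potency for activators that raise TRPM1 promoter luciferase signal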

| SMILES | AC40 |
| --- | --- |
| CC(C)(C)c1ccc(-c2noc(-c3ccno3)n2)cc1 | 0.472 µM |
| CC(=O)c1cccc(NC(=O)c2cc3nc(C)cc(C)n3n2)c1 | 2.7 µM |
| C=CCSc1nncn1/N=C/c1ccc(OC)cc1 | 1.41 µM |
| C/C(=N\OC(=O)Nc1ccccc1)c1ccc(C)cc1 | 3.45 µM |
| Cc1nc(SCc2ccccc2)nc2c1CCC2 | 2.58 µM |
| COc1ccc(/C=C2\CCn3c2nc2ccccc2c3=O)cc1OC | 0.899 µM |
| CC(Cc1ccccc1)/[N+]([O-])=C\c1ccc(C(F)(F)F)cc1 (configuration not stated) | 8.22 µM |
| Clc1ccc(-c2cc(CSc3ccccc3)on2)cc1 | 1.45 µM |
| COc1ccc2c(c1OC)C(=O)N1c3ccccc3COC21 (configuration not stated) | 0.955 µM |
| COc1ccc(C)c2sc(=NC(=O)c3ccc(C(C)=O)cc3)n(C)c12 | 0.119 µM |
| O=C(Nc1ccc(O)cc1)c1cc2ccccc2c(=O)s1 | 2.3 µM |
| Cc1cccc(NC(=O)c2sc3nc(N)c(C#N)cc3c2N)c1 | 2.61 µM |
| Nc1ccc2oc(-c3cccs3)nc2c1 | 4.75 µM |
| COc1cc(/C=C/c2noc(-c3ccccc3O)n2)ccc1OC(C)=O | 1.62 µM |
| O=C(N/C=C/c1ccccc1)c1ccccc1 | 0.551 µM |
| CCn1c(COc2ccccc2C)nc2ccccc21 | 9.77 µM |
| CC(C)C[C@@H](CSc1ccccc1)N1CCN(CC(C)C)CCC1=O | 4.58 µM |
| Cc1ccc(C(=O)Cn2nnc3ccccc32)cc1C | 0.858 µM |
| CCCCNc1ccc2c(c1)C1CC2CCN1C(=O)OCc1ccccc1 (configuration not stated) | 3.32 µM |
| c1ccc2oc(CCc3nc4ccccc4o3)nc2c1 | > 35 µM (inactive) |
| CCc1nc(NC(C)(C)C)c2cnn(-c3ccccc3)c2n1 | 6.25 µM |
| CC(C)C(=O)Nc1cccc(-c2cnc3ccccc3n2)c1 | 17.3 µM |

| SMILES | AC40 |
| --- | --- |
| COc1cc(C=O)ccc1OCc1cccc(Br)c1 | 5.93 µM |
| O=C(Cc1ccccn1)c1ccc(Cl)cc1 | 1.98 µM |
| Cc1ccc(Nc2cc(C)c3c(O)cccc3n2)cc1C | 3.4 µM |
| CCCCN1CCc2c([nH]c3c(C)cccc23)C1=O | > 35 µM (inactive) |
| COc1ccc(/C=C2\OC(=O)c3c(OC)cccc32)cc1OC | 0.998 µM |
| COc1ccc(-c2csc(N(C)C(=O)c3cccs3)n2)cc1 | 6.73 µM |
| COc1ccc(NC(=O)C2Cc3ccccc3O/C2=N\O)cc1 (configuration not stated) | 17 µM |
| CC1CCN(C(=O)Nc2ccc3nsnc3c2)CC1 | 13.7 µM |
| COc1ccccc1-c1cnn2c(NC3CCCC3)cc(C)nc12 | 4.09 µM |
| COc1cc2c(C)nc3c(cnn3-c3ccccc3)c2cc1OC | 2.87 µM |
| COc1ccc(COc2ccc3ccc(=O)oc3c2)cc1 | 1.21 µM |
| C=CCc1c(C)nc(-c2ccccc2)nc1N/N=C/c1ccncc1 | 7.06 µM |
| CCc1nc2oc3ccccc3c(=O)c2cc1C(=O)OC | 5.7 µM |
| Cc1ccccc1-c1nc2cc(Cl)ccc2o1 | 8.56 µM |
| COc1ccccc1C(=O)NCC(=O)Nc1ccc2c(c1)CCC2 | 2.42 µM |
| COc1ccc(C2Nc3ccccc3C(=O)N2c2ccc(C)cc2)cc1Cn1nnc2ccccc21 (configuration not stated) | 17.2 µM |
| CCCc1cc(-c2ccc3c(c2)COc2c4ccccc4nn2-3)on1 | 0.145 µM |
| CCCN1C(=O)C(=O)N(CC(=O)c2cc(C)n(C3CC3)c2C)C1=O | 24.8 µM |
| O=C(NCc1ccc2c(c1)OCO2)Nc1cccc(Cl)c1 | 8.57 µM |
| Cc1ccn(-c2cccc(-n3ccc(C)n3)n2)n1 | 0.834 µM |
| C/C(Cl)=C/CSc1nn2c(=O)c3ccccc3nc2s1 | 13 µM |
| CCN(CC)CC(=O)Nc1scc2c1c(=O)oc1ccccc12 | 6.27 µM |

| SMILES | AC40 |
| --- | --- |
| CCN1CCN(c2ccc(NC(=O)c3cccc(F)c3)cc2Cl)CC1 | 3.08 µM |
| Cc1ccc(OCc2cc(C(=O)N3CC4C[C@@H]5CC3C[C@H](C4)C5)no2)cc1C | 2.61 µM |
| COc1ccc2sc(NCc3ccccc3)nc2c1 | 1.98 µM |
| COc1cc(/C=N/O)ccc1OCc1ccccc1Cl | 0.744 µM |
| COc1cccc2sc3ccc(C#CC4(O)CCCCC4)cc3c(=O)c12 | 2.94 µM |
| CCCCN1C(=O)/C(=C2\SC(N3CCCCC3)=NC2=O)c2ccccc21 | 3.23 µM |
| Cc1nc(NC(C)C)c2cnn(CCc3ccccc3)c2n1 | 7.11 µM |
| c1cnc(Nc2nc(-c3ccc4ccccc4c3)cs2)nc1 | 0.516 µM |
| O=C(NCC1CC1)Nc1ccc(Cl)cc1 | 12.9 µM |
| Cc1ccc(O)c(-n2nc3ccccc3n2)c1 | 1.21 µM |
| O=c1nc2sc3ccccc3n2c(=O)n1-c1ccc(Cl)cc1 | 3.48 µM |
| Cc1nnc(NC(=O)c2ccc(N3CCCC3=O)cc2)s1 | > 35 µM (inactive) |
| Nc1ccc(-c2nc3ncccc3o2)c(O)c1 | 5.79 µM |
| CC(=O)N1N=C(c2ccc(C)cc2)OC1c1ccc(Br)cc1 (configuration not stated) | 2.83 µM |
| Oc1oc(-c2ccccc2)nc1C=NCc1ccccc1 | 11.3 µM |
| Cn1c(SCc2c(F)cccc2Cl)nnc1-c1cnccn1 | 6.16 µM |
| O=C(Nc1ccccc1)Nc1ccc2nnsc2c1 | 13.1 µM |
| Cc1ccc(NC(=O)CC(=O)c2ccccc2)cc1C | 3.33 µM |
| Cc1cc(CN(C)C(=O)c2ccc3nc(Cc4ccccc4F)oc3c2)on1 | 14.1 µM |
| COc1ccc2nc3ccccc3nc2c1 | 4.11 µM |
| Cc1ccc(CNc2ccc3c(c2)ncn3C(C)C)cc1 | 2.63 µM |
| Cc1csc(NC(=O)Cc2c[nH]c3ccccc23)n1 | 27.3 µM |

| SMILES | AC40 |
| --- | --- |
| Cc1ccc(N2NC(C)(c3cccs3)NC2=S)cc1 (configuration not stated) | 1.42 µM |
| Nc1ccc(N=Nc2ccccc2)c(N)n1 | 14.7 µM |
| C=CCNc1nc(-c2ccc(Cl)cc2)cs1 | 0.639 µM |
| CCS(=O)(=O)N1CCN(c2nc(-c3ccccc3)cs2)CC1 | 33.3 µM |
| N#Cc1cc(C#N)c(N2CCN(c3ccccn3)CC2)nc1N | 4.47 µM |
| COc1ccc(OCc2cc(C(=O)NC(C)c3cnn(C)c3)no2)c(Cl)c1 (configuration not stated) | 12.3 µM |
| O=C(Cc1ccccc1F)Nc1ccc(SC(F)F)cc1 | 1.98 µM |
| Cc1cccc(C(=O)Nc2ccn(C)n2)c1 | 24.4 µM |
| O=C(NCCc1ccc(O)cc1)c1ccc(Cl)cc1 | 2.89 µM |
| Oc1cccc(-c2nc3ccc4ccccc4c3c3c2CCC3)c1 | 3.02 µM |
| c1ccc(-c2nc3ccccc3[nH]2)cc1 | 1.81 µM |
| c1cnc2nc(-c3ccc4c(c3)OCO4)cn2c1 | 13.7 µM |
| Cc1ccc(-c2csc(NC(=O)c3ccc(Br)cc3)c2C(=O)O)cc1 | 6.1 µM |
| c1ccc(Cc2cc(-c3ccccc3)on2)cc1 | 2.58 µM |
| Nc1nc(CSc2ccccn2)nc(Nc2ccccc2)n1 | 1.31 µM |
| COc1ccc(-c2ccc3oc(-c4ccsc4)cc(=O)c3c2)cn1 | 1.79 µM |
| COc1ccc2cc(C(=O)NCCc3ccccc3)[nH]c2c1 | 11.6 µM |
| Nc1ccccc1C#Cc1ccccc1 | 0.777 µM |
| COC(=O)Cc1csc(Nc2ccccc2Cl)n1 | 6.3 µM |
| COc1ccc(-c2ccc3ccccc3n2)cc1OC | 1.38 µM |
| O=C(Nc1ccc2oc(-c3ccccc3)nc2c1)c1cccnc1 | 5.22 µM |
| Cc1cc(Cl)ccc1OCc1cn2cccnc2n1 | 1.41 µM |

| SMILES | AC40 |
| --- | --- |
| COc1ccc(-c2cn(CC3CCCCC3)nn2)cc1 | 3.61 µM |
| Cc1cc(CNC(=O)c2cc(COc3ccc(F)c(F)c3)on2)nn1C | 3.37 µM |
| N/C(=N\OC(=O)C1CCCCC1)c1cccc(Br)c1 | 13.5 µM |
| CC1CCC(NC(=O)c2ccc(NS(=O)(=O)c3ccc4[nH]c(=O)[nH]c4c3)cc2)CC1 (configuration not stated) | 25.1 µM |
| Cc1nn(-c2ccccn2)c2c1-c1nc(N)ncc1CC2 | 2.38 µM |
| N#Cc1c(-c2ccc(Cl)cc2)ccn2nc(C3CCCCC3)nc12 | 2.4 µM |
| O=C(O)c1ccc(N/N=C/c2cccc(C(F)(F)F)c2)cc1 | 0.488 µM |
| O=C(c1cccs1)N1CCn2c1nc1ccccc12 | 4.69 µM |
| O=C(O)c1cc(-c2ccc(-c3c(-c4ccc5c(c4)OCO5)noc3-c3ccsc3)cc2)nc2ccccc12 | 20.3 µM |
| COc1ccc(C(=O)Nc2cc3c4c(c2)CC(=O)N4CCC3)c(OC)c1 | 6.24 µM |
| COc1ccc2cc(C(N)=O)c(=Nc3ccccc3)oc2c1 | 4.54 µM |
| COc1ccc(NC(=O)c2ccc3c(c2)OCO3)cc1Cl | 0.642 µM |
| Cc1cccc(NC(=O)c2onc3c2CCCC3)c1C | 1.62 µM |
| CC(C)c1ccc(CNc2ncc(Br)cn2)cc1 | 3.76 µM |
| CCCN(CCC)c1ncnc2c1cnn2-c1ccc(OC)cc1 | 0.256 µM |
| CC(=O)c1ccc2c(c1)Cc1cc(C(C)=O)ccc1-2 | 1.19 µM |
| COc1cccc(-c2cc(C(=O)Nc3ccccc3SC)no2)c1 | > 35 µM (inactive) |
| O=C(NC1CCCCCC1)c1cc2c(=O)n3ccccc3nc2s1 | 8.63 µM |
| COC(=O)Cc1ccc(OCc2ccc(Cl)nc2)cc1 | 4.13 µM |
| FC(F)(F)c1ccnc(Oc2ccc(C3=NCCS3)cc2)c1 | 0.654 µM |
| CCCc1ccc(OCc2nc(-c3ccc(NC(=O)c4cccs4)cc3)no2)cc1 | 14.2 µM |
| CCS(=O)(=O)c1ccc2oc(Nc3ccccc3C)nc2c1 | 3.65 µM |

| SMILES | AC40 |
| --- | --- |
| O=c1oc(-c2cccs2)nc2sc3c(c12)CCCCC3 | 6.42 µM |
| Cc1ccsc1/C=N/NC(=O)Nc1ccccc1 | 1.07 µM |
| Cc1ccc(CNc2nc(C)cs2)cc1 | 1.05 µM |
| Cn1c(C(=O)NCCc2c[nH]c3ccccc23)cc2sccc21 | 3.4 µM |
| Cc1cc(NC(=O)c2ccc(Cl)cc2)no1 | 2.63 µM |
| CC(=O)N/C(N)=N/c1nc(=O)c2ccccc2s1 | 5.92 µM |
| CC(C)(C)c1ccc(SCCc2ccccn2)cc1 | 1.98 µM |
| CC(=O)Nc1nnc(COc2ccc(Cl)cc2)s1 | 3.16 µM |
| O=C(Nc1ccc2c(c1)CCC2)c1c(F)cccc1Cl | 1.84 µM |
| Clc1ccc(-c2cnnc(-c3ccccn3)n2)cc1 | 1.71 µM |
| COc1ccc(-c2cn3nc(C)c(C)nc3n2)cc1OC | 5.89 µM |
| CC1(C)CC(/C=C/c2ccccc2)=Nc2ccccc2N1 | 20.9 µM |
| O=C1/C(=C/c2cccnc2)CCc2c1[nH]c1ccccc21 | 6.49 µM |
| Cc1cccc2c1-c1sc(C(=O)N3CCCCC3)cc1CO2 | 2.7 µM |
| Nc1c(C(=O)C2CC2)sc2nc3c(cc12)CCC3 | 1.92 µM |
| Cc1ccc(-c2csc(C(C#N)=C3CCCC3)n2)cc1 | 2.84 µM |
| O=C(CC1CCCC1)Nc1ccc(Br)cc1 | 11.6 µM |
| N/C(=N\OC(=O)C12CC3CC(CC(C3)C1)C2)c1ccccn1 | 8.23 µM |
| CC(C)(C)c1ccc(-c2cc(C(=O)NNC(=O)Nc3ccccc3)c3ccccc3n2)cc1 | 3.33 µM |
| CCCCN1C(=O)/C(=C/C=C2\SCCN2C)SC1=S | 5.57 µM |
| Cc1ccc(NC(=O)C2C3/C=C\CCCCC32)cc1 (configuration not stated) | 4.54 µM |
| CSc1ccc(-c2nnn(Cc3ccc(C)cc3)n2)cc1 | 5.08 µM |
